For 33 compounds, IC50 results are on record in patent publication US20230150970A1, “AMINOPYRIMIDINE DERIVATIVES AND THEIR USE AS ARYL HYDROCARBON RECEPTOR MODULATORS” (DONG-A ST CO., LTD., priority 2020, published 2023).

This test has as its target T1, AhR (Homo sapiens, UniProt P35869).
T1 sequence (P35869 11-848): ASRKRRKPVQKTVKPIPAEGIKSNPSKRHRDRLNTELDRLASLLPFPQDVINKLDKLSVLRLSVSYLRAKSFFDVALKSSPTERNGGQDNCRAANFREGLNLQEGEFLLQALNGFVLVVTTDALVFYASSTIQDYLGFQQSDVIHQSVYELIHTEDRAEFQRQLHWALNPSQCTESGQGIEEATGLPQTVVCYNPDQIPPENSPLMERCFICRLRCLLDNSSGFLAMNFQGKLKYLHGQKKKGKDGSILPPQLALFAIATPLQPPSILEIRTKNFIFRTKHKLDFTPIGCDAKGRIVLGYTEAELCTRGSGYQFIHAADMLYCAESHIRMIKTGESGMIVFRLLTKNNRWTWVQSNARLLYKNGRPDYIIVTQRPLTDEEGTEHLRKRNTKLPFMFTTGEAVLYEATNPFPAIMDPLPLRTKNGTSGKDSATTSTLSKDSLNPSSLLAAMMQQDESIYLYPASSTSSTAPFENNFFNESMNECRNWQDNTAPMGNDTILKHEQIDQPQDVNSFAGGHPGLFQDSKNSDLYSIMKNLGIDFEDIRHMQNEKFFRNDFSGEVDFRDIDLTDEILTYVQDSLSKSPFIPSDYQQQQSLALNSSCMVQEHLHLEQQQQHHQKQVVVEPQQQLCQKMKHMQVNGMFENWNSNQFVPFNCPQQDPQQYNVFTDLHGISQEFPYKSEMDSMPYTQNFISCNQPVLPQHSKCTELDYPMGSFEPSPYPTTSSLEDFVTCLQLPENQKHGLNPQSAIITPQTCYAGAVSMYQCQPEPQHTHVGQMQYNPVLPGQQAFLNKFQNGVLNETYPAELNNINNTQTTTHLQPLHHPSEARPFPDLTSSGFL
Kind of test: In Vitro Assay 1: XRE-luciferase reporter assay, antagonism in human cell line (HepG2). As to conditions: Assay 1: AhR-Luc Human Antagonism (IC50, nM), values marked *: kynurenine 50 μM, 6 hours. (In general: A reporter such as luciferase makes a cellular process visible.)

The term IC50 denotes the concentration that gives 50% inhibition. Lower therefore signals greater potency.

In turn, `Cn1cc(-c2nc(-c3ccc(Cl)cc3)cc(N3CCC(C#N)CC3)n2)cn1` [Example 184, 1-(6-(4-chlorophenyl)-2-(1-methyl-1H-pyrazol-4-yl)pyrimidin-4-yl)piperidine-4-carbonitrile] came in with an IC50 of 100 to 1000 nM. With `Cn1cc(-c2nc(-c3ccc(Cl)cc3)cc(N3CCC[C@@H](CO)C3)n2)cn1` [Example 185, (R)-(1-(6-(4-chlorophenyl)-2-(1-methyl-1H-pyrazol-4-yl)pyrimidin-4-yl)piperidin-3-yl)methanol] the figure was 100 to 1000 nM. With `Cn1cc(-c2nc(-c3ccc(Cl)cc3)cc(N3CC[C@@H](O)C3)n2)cn1` [Example 186, (R)-1-(6-(4-chlorophenyl)-2-(1-methyl-1H-pyrazol-4-yl)pyrimidin-4-yl)pyrrolidin-3-ol] the figure was > 1000 nM.

In turn, `Cn1cc(-c2nc(N[C@@H]3CC[C@H](O)C3)cc(-c3ccc(Cl)cc3)n2)cn1` [Example 187, (1S,3R)-3-((6-(4-chlorophenyl)-2-(1-methyl-1H-pyrazol-4-yl)pyrimidin-4-yl)amino)cyclopentan-1-ol] yielded a half-inhibitory concentration (IC50) of 100 to 1000 nM. `CC[C@H](CO)Nc1cc(-c2ccc(Cl)cc2)nc(-c2cnn(C)c2)n1` [Example 188, (R)-2-((6-(4-chlorophenyl)-2-(1-methyl-1H-pyrazol-4-yl)pyrimidin-4-yl)amino)butan-1-ol] gave an IC50 of 100 to 1000 nM. `Cn1cc(-c2nc(N[C@H]3CC[C@H](O)CC3)cc(-c3ccc(Cl)cc3)n2)cn1` [Example 189, Trans-4-((6-(4-chlorophenyl)-2-(1-methyl-1H-pyrazol-4-yl)pyrimidin-4-yl)amino)cyclohexan-1-ol] gave a half-inhibitory concentration (IC50) of 100 to 1000 nM. With `Clc1ccc(-c2cc(N3CCC4CCCOC4C3)nc(-c3cccnc3)n2)cc1` (stereo not drawn) [Example 190, 7-(6-(4-chlorophenyl)-2-(pyridin-3-yl)pyrimidin-4-yl)octahydro-2H-pyrano[2,3-c]pyridine] the figure was 10 to 100 nM. With `OC1CCOC2CN(c3cc(-c4ccc(Cl)cc4)nc(-c4cccnc4)n3)CCC12` (stereo not drawn) [Example 191, 7-(6-(4-chlorophenyl)-2-(pyridin-3-yl)pyrimidin-4-yl)octahydro-2H-pyrano[2,3-c]pyridin-4-ol] the figure was 10 to 100 nM. `CC[C@@H](Nc1cc(-c2ccc(Cl)cc2)nc(-c2cccnc2)n1)[C@@H](C)O` [Example 192, (2R,3R)-3-((6-(4-chlorophenyl)-2-(pyridin-3-yl)pyrimidin-4-yl)amino)pentan-2-ol] came in with an IC50 of 100 to 1000 nM.

The compound `CN1CCC(CNc2cc(-c3ccc(Cl)cc3)nc(-c3cccnc3)n2)CC1` [Example 193, 6-(4-chlorophenyl)-N-((1-methylpiperidin-4-yl)methyl)-2-(pyridin-3-yl)pyrimidin-4-amine] yielded an IC50 of 100 to 1000 nM.

On to `O[C@@H]1CCN(c2cc(-c3ccc(Cl)cc3)nc(-c3cccnc3)n2)C1` [Example 194, (R)-1-(6-(4-chlorophenyl)-2-(pyridin-3-yl)pyrimidin-4-yl)pyrrolidin-3-ol], for which the IC50 is < 10 nM. As to `COC[C@@H]1CCCN1Nc1cc(-c2ccc(Cl)cc2)nc(-c2cccnc2)n1` [Example 195, (S)-6-(4-chlorophenyl)-N-(2-(methoxymethyl)pyrrolidin-1-yl)-2-(pyridin-3-yl)pyrimidin-4-amine], the IC50 was > 1000 nM. Take `F[C@H]1CCN(c2cc(-c3ccc(Cl)cc3)nc(-c3cccnc3)n2)C1` [Example 196, (S)-4-(4-chlorophenyl)-6-(3-fluoropyrrolidin-1-yl)-2-(pyridin-3-yl)pyrimidine]: the IC50 is 10 to 100 nM.

Take `FC(F)(F)C1CCCN1c1cc(-c2ccc(Cl)cc2)nc(-c2cccnc2)n1` (stereo not drawn) [Example 197, 4-(4-chlorophenyl)-2-(pyridin-3-yl)-6-(2-(trifluoromethyl)pyrrolidin-1-yl)pyrimidine]: the IC50 is > 1000 nM. With `FC1(F)CCN(c2cc(-c3ccc(Cl)cc3)nc(-c3cccnc3)n2)C1` [Example 198, 4-(4-chlorophenyl)-6-(3,3-difluoropyrrolidin-1-yl)-2-(pyridin-3-yl)pyrimidine] the figure was 10 to 100 nM. With `Clc1ccc(-c2cc(N3CCC(N4CCOCC4)C3)nc(-c3cccnc3)n2)cc1` (stereo not drawn) [Example 199, 4-(1-(6-(4-chlorophenyl)-2-(pyridin-3-yl)pyrimidin-4-yl)pyrrolidin-3-yl)morpholine] the figure was 100 to 1000 nM; with `O=C1CCC(CNc2cc(-c3ccc(Cl)cc3)nc(-c3cccnc3)n2)N1` (stereo not drawn) [Example 200, 5-(((6-(4-chlorophenyl)-2-(pyridin-3-yl)pyrimidin-4-yl)amino)methyl)pyrrolidin-2-one], > 1000 nM; with `CO[C@H]1CN(C)C[C@@H]1Nc1cc(-c2ccc(Cl)cc2)nc(-c2cccnc2)n1` [Example 202, 6-(4-chlorophenyl)-N-((3S,4S)-4-methoxy-1-methylpyrrolidin-3-yl)-2-(pyridin-3-yl)pyrimidin-4-amine], > 1000 nM. As for `Clc1ccc(-c2cc(N[C@@H]3CCCNC3)nc(-c3cccnc3)n2)cc1` [Example 203, (R)-6-(4-chlorophenyl)-N-(piperidin-3-yl)-2-(pyridin-3-yl)pyrimidin-4-amine], the IC50 fell in the range of 100 to 1000 nM.

Regarding `Clc1ccc(-c2cc(NC3CCCNC3)nc(-c3cccnc3)n2)cc1` (stereo not drawn) [Example 204, 6-(4-chlorophenyl)-N-(piperidin-3-yl)-2-(pyridin-3-yl)pyrimidin-4-amine], the IC50 is > 1000 nM. Turning to `F[C@@H]1CNCC[C@H]1Nc1cc(-c2ccc(Cl)cc2)nc(-c2cccnc2)n1` [Example 205, 6-(4-chlorophenyl)-N-((3R,4R)-3-fluoropiperidin-4-yl)-2-(pyridin-3-yl)pyrimidin-4-amine], the concentration for half-maximal inhibition (IC50) was > 1000 nM.

With `Clc1ccc(-c2cc(NC[C@H]3CCNC3)nc(-c3cccnc3)n2)cc1` [Example 206, (S)-6-(4-chlorophenyl)-2-(pyridin-3-yl)-N-(pyrrolidin-3-ylmethyl)pyrimidin-4-amine], the IC50 was > 1000 nM. In the case of `COC(=O)[C@H]1C[C@@H](Nc2cc(-c3ccc(Cl)cc3)nc(-c3cccnc3)n2)CN1` [Example 207, methyl (2R,4R)-4-((6-(4-chlorophenyl)-2-(pyridin-3-yl)pyrimidin-4-yl)amino)pyrrolidine-2-carboxylate], the IC50 was > 1000 nM. Regarding `O=C(O)[C@H]1C[C@H](Nc2cc(-c3ccc(Cl)cc3)nc(-c3cccnc3)n2)CN1` [Example 208, (2R,4S)-4-((6-(4-chlorophenyl)-2-(pyridin-3-yl)pyrimidin-4-yl)amino)pyrrolidine-2-carboxylic acid], the half-maximal inhibitory concentration (IC50) was > 1000 nM.

`ClC[C@@H]1CCN(c2cc(-c3ccc(Cl)cc3)nc(-c3cccnc3)n2)C1` [Example 210, (R)-4-(3-(chloromethyl)pyrrolidin-1-yl)-6-(4-chlorophenyl)-2-(pyridin-3-yl)pyrimidine] returned a half-maximal inhibitory concentration (IC50) of 10 to 100 nM.

With `ClC[C@H]1CCN(c2cc(-c3ccc(Cl)cc3)nc(-c3cccnc3)n2)C1` [Example 211, (S)-4-(3-(chloromethyl)pyrrolidin-1-yl)-6-(4-chlorophenyl)-2-(pyridin-3-yl)pyrimidine], the concentration for half-maximal inhibition (IC50) is 10 to 100 nM. The compound `N#CC1CCN(c2cc(-c3ccc(Cl)cc3)nc(-c3cccnc3)n2)C1` (stereo not drawn) [Example 212, 1-(6-(4-chlorophenyl)-2-(pyridin-3-yl)pyrimidin-4-yl)pyrrolidine-3-carbonitrile] returned an IC50 of 10 to 100 nM. In turn, `CC[C@@H](O)CNc1cc(-c2ccc(Cl)cc2)nc(-c2cccnc2)n1` [Example 213, (R)-1-((6-(4-chlorophenyl)-2-(pyridin-3-yl)pyrimidin-4-yl)amino)butan-2-ol] had an IC50 of 10 to 100 nM. Regarding `O[C@@H]1CC[C@H](Nc2cc(-c3ccc(Cl)cc3)nc(-c3cccnc3)n2)C1` [Example 214, (1R,3S)-3-((6-(4-chlorophenyl)-2-(pyridin-3-yl)pyrimidin-4-yl)amino)cyclopentan-1-ol], the IC50 lay within 10 to 100 nM.

Turning to `COCCN1CCN(c2cc(-c3ccc(Cl)cc3)nc(-c3cccnc3)n2)CC1` [Example 218, 4-(4-chlorophenyl)-6-(4-(2-methoxyethyl)piperazin-1-yl)-2-(pyridin-3-yl)pyrimidine], the IC50 is < 10 nM. With `O[C@@H]1CCN(c2cc(-c3ccc(Cl)cc3)nc(-c3cccnc3)n2)C[C@@H]1F` [Example 219, (3S,4R)-1-(6-(4-chlorophenyl)-2-(pyridin-3-yl)pyrimidin-4-yl)-3-fluoropiperidin-4-ol] the figure was < 10 nM; with `O[C@H]1CCN(c2cc(-c3ccc(Cl)cc3)nc(-c3cccnc3)n2)C[C@H]1F` [Example 220, (3R,4S)-1-(6-(4-chlorophenyl)-2-(pyridin-3-yl)pyrimidin-4-yl)-3-fluoropiperidin-4-ol], 10 to 100 nM. With `O[C@@H]1CCN(c2cc(-c3ccc(Cl)cc3)nc(-c3cccnc3)n2)C[C@H]1F` [Example 221, (3R,4R)-1-(6-(4-chlorophenyl)-2-(pyridin-3-yl)pyrimidin-4-yl)-3-fluoropiperidin-4-ol] the figure was 10 to 100 nM.
